Laboratory results from the NIST ThermoML archive (doi:10.1016/j.jct.2017.11.012).

Settings: for mass density: 101.33 kPa, Liquid, Buoyancy - hydrostatic balance with magnetic suspension - one sinker

CCCCn1cc[n+](C)c1.[Br-] [1-butyl-3-methylimidazolium bromide]
surface tension liquid-gas [mN/m]
Settings	Ring tensiometer	Wilhelmy Plate
308.39 K	50.28	49.98
313.11 K	49.8	49.69
318.48 K	49.51	49.33
323.54 K	–	48.98
323.57 K	49.22	–
328.1 K	–	48.67
328.14 K	48.96	–
333.02 K	–	48.35
333.03 K	48.6	–
337.99 K	48.27	–
338.01 K	–	48.07
342.75 K	48	47.75
349.14 K	47.72	–
349.16 K	–	47.31
353.12 K	47.24	–
353.41 K	–	47.09
358.27 K	47.27	–
358.3 K	–	46.78
362.9 K	46.86	–
362.92 K	–	46.39

Settings	mass density [kg/m3]
308.39 K	1299.64
313.12 K	1296.36
318.5 K	1292.56
323.58 K	1288.88
328.14 K	1285.46
333.02 K	1281.54
337.96 K	1278.29
342.67 K	1275.32
349.08 K	1271.43
353.08 K	1268.23
358.19 K	1264.49
362.86 K	1261.43

CCCCCCCCCCn1cc[n+](C)c1.[Br-] [1-decyl-3-methylimidazolium bromide]
Settings	mass density [kg/m3]
298.41 K	1128.2
303.45 K	1124.55
308.2 K	1121.27
313.5 K	1117.38
318.29 K	1113.91
322.96 K	1110.37
327.96 K	1106.69
333.59 K	1102.59
337.76 K	1099.91
343.08 K	1095.88
348.29 K	1092.59
352.96 K	1089.23
358.48 K	1085.6
361.87 K	1083.32

Settings	surface tension liquid-gas [mN/m]
303.38 K, Ring tensiometer	28.04
303.43 K, Wilhelmy Plate	27.64
308.15 K, Ring tensiometer	27.97
313.47 K, Ring tensiometer	27.73
318.26 K, Ring tensiometer	27.54
322.99 K, Ring tensiometer	27.14
323.02 K, Wilhelmy Plate	26.87
328.01 K, Ring tensiometer	27.01
328.08 K, Wilhelmy Plate	26.65
332.75 K, Ring tensiometer	26.87
332.76 K, Wilhelmy Plate	26.45
337.48 K, Wilhelmy Plate	26.22
338.06 K, Ring tensiometer	26.74
343.15 K, Ring tensiometer	26.07
343.19 K, Wilhelmy Plate	25.97
347.35 K, Ring tensiometer	26.14
347.47 K, Wilhelmy Plate	25.82
352.46 K, Ring tensiometer	25.77
352.93 K, Wilhelmy Plate	25.57
358.38 K, Ring tensiometer	25.28
358.41 K, Wilhelmy Plate	25.36
361.45 K, Ring tensiometer	25.51
361.5 K, Wilhelmy Plate	25.22

CCn1cc[n+](C)c1.[Br-] [1-ethyl-3-methylimidazolium bromide]
surface tension liquid-gas [mN/m]
Settings	343.14 K	348.29 K	348.32 K	352.84 K	358.28 K	364.1 K	364.11 K
Ring tensiometer	62.01	61.86	–	61.28	61.25	60.53	–
Wilhelmy Plate	–	–	61.4	61.03	60.65	–	60.34

Settings	mass density [kg/m3]
348.26 K	1381.17
352.77 K	1378.39
358.17 K	1375.04
364.02 K	1370.88

CCCCCCCn1cc[n+](C)c1.[Br-] [1-heptyl-3-methylimidazolium bromide]
Settings	mass density [kg/m3]
288.61 K	1204.51
293.46 K	1200.12
298.41 K	1196.78
303.25 K	1193
308.21 K	1189.59
313.68 K	1184.48
318.07 K	1180.84
323.13 K	1177.36
328.04 K	1173.42
333.16 K	1169.7
338.28 K	1165.8
342.93 K	1162.61
348 K	1159.27
353.15 K	1155.57
358.44 K	1151.81
361.83 K	1149.33

surface tension liquid-gas [mN/m]
Settings	Ring tensiometer	Wilhelmy Plate
313.61 K	34.83	34.57
317.99 K	34.5	–
318.02 K	–	34.35
323.11 K	34.21	–
323.13 K	–	34.09
328.07 K	34.3	–
328.11 K	–	33.89
333.19 K	33.55	–
333.24 K	–	33.58
338.33 K	33.25	33.3
341.81 K	33.17	–
341.91 K	–	33.14
347.18 K	33.07	–
347.23 K	–	32.89
353.09 K	32.56	–
353.14 K	–	32.61
358.31 K	32.41	–
358.37 K	–	32.4
361.72 K	32.03	–
361.8 K	–	32.17

CCCCCCCCCn1cc[n+](C)c1.[Br-] [1-methyl-3-nonylimidazolium bromide]
Settings	mass density [kg/m3]
293.53 K	1151.11
298.66 K	1147.53
303.27 K	1143.87
308.55 K	1140.39
313.46 K	1136.5
318.04 K	1132.93
323.21 K	1129.22
327.91 K	1125.75
333.09 K	1122.06
338.45 K	1118.47
342.75 K	1115.49
348.28 K	1112.09
353.51 K	1108.37
358.3 K	1105.2
361.69 K	1103.16

surface tension liquid-gas [mN/m]
Settings	Ring tensiometer	Wilhelmy Plate
298.64 K	30.63	–
303.27 K	30.41	–
303.28 K	–	30.12
308.54 K	30.17	–
308.55 K	–	29.91
313.44 K	29.95	29.73
318.03 K	29.77	29.54
323.2 K	29.62	–
323.23 K	–	29.3
327.94 K	29.41	–
327.97 K	–	29.1
333.09 K	29.19	–
333.11 K	–	28.86
338.49 K	28.72	28.59
342.76 K	28.51	–
342.8 K	–	28.39
348.23 K	28.46	–
348.31 K	–	28.18
352.32 K	27.98	–
352.4 K	–	27.99
358.25 K	27.94	–
358.31 K	–	27.75
361.6 K	27.82	–
361.68 K	–	27.59

CCCCCCCCn1cc[n+](C)c1.[Br-] [1-methyl-3-octylimidazolium bromide]
Settings	mass density [kg/m3]
293.61 K	1173.83
298.22 K	1170.38
303.23 K	1166.69
307.98 K	1163.19
313.53 K	1159.21
318.39 K	1155.7
323.35 K	1151.66
328.26 K	1147.97
332.57 K	1145.04
338.39 K	1140.81
342.96 K	1137.99
347.82 K	1135.43
353.15 K	1131.58
358.97 K	1127.78
360.84 K	1126.32

surface tension liquid-gas [mN/m]
Settings	Ring tensiometer	Wilhelmy Plate
303.23 K	32.9	32.52
307.93 K	–	32.34
307.95 K	32.68	–
313.51 K	32.49	32.16
318.36 K	–	31.99
318.37 K	32.28	–
323.33 K	–	31.75
323.34 K	32.03	–
328.25 K	–	31.56
328.26 K	31.79	–
332.59 K	31.67	–
332.6 K	–	31.43
338.4 K	31.5	–
338.44 K	–	31.17
343.06 K	30.97	–
343.07 K	–	30.89
347.49 K	30.57	–
347.69 K	–	30.73
352.5 K	–	30.58
352.52 K	30.66	–
357.51 K	30.27	–
357.64 K	–	30.33
360.82 K	30.43	–
360.88 K	–	30.24

CCC[n+]1ccn(C)c1.[Br-] [1-methyl-3-propylimidazolium bromide]
surface tension liquid-gas [mN/m]
Settings	Ring tensiometer	Wilhelmy Plate
328.53 K	–	55.02
328.55 K	55.07	–
333.09 K	–	54.74
333.1 K	55.08	–
337.75 K	54.69	54.46
343.78 K	54.17	–
343.8 K	–	53.93
347.98 K	53.66	–
348.01 K	–	53.75
352.22 K	–	53.51
352.34 K	53.52	–
358.15 K	52.86	–
358.17 K	–	53.09
362.78 K	52.94	–
362.89 K	–	52.72

Settings	mass density [kg/m3]
333.07 K	1332.55
337.73 K	1329.41
343.74 K	1325.39
347.91 K	1322.26
352.28 K	1318.84
358.1 K	1314.79
362.76 K	1310.9

Br.Cn1ccnc1 [1-methylimidazolium bromide]
surface tension liquid-gas [mN/m]
Settings	Ring tensiometer	Wilhelmy Plate
323.07 K	67.99	68.35
328.84 K	67.68	67.81
332.74 K	–	67.37
332.76 K	67.45	–
337.93 K	67.14	–
338.02 K	–	66.81
344.29 K	66	–
344.42 K	–	66.16
347.21 K	65.6	–
347.25 K	–	65.85
353.02 K	64.6	–
353.08 K	–	65.23
358.29 K	64.85	–
358.33 K	–	64.67
364.65 K	64.42	–
364.75 K	–	63.96

Settings	mass density [kg/m3]
328.83 K	1557.9
332.76 K	1554.36
337.92 K	1550.16
344.29 K	1544.92
347.1 K	1542.88
353.02 K	1538.47
358.15 K	1534.17
364.58 K	1530.63

CCCCCn1cc[n+](C)c1.[Br-] [1-pentyl-3-methylimidazolium bromide]
Settings	mass density [kg/m3]
298.49 K	1262.83
303.3 K	1259.38
308.12 K	1256.49
313.27 K	1252.83
318.27 K	1249.49
323.3 K	1245.55
327.41 K	1242.66
333.16 K	1239.16
338.01 K	1236.12
343.01 K	1232.8
348.13 K	1229.53
353.01 K	1226.21
358.12 K	1222.61
362.97 K	1219.41

Settings	surface tension liquid-gas [mN/m]
333.23 K, Ring tensiometer	41.96
333.26 K, Wilhelmy Plate	41.79
338.06 K, Ring tensiometer	41.95
338.08 K, Wilhelmy Plate	41.6
343.07 K, Ring tensiometer	41.84
343.09 K, Wilhelmy Plate	41.38
348.23 K, Ring tensiometer	41.59
348.26 K, Wilhelmy Plate	41.18
353.11 K, Ring tensiometer	41.45
353.13 K, Wilhelmy Plate	41
358.22 K, Ring tensiometer	41.24
358.24 K, Wilhelmy Plate	40.81
363.07 K, Ring tensiometer	41.04
363.12 K, Wilhelmy Plate	40.6

CCCCCCn1cc[n+](C)c1.[Br-] [3-hexyl-1-methyl-1H-imidazolium bromide]
surface tension liquid-gas [mN/m]
Settings	Ring tensiometer	Wilhelmy Plate
288.65 K	40.83	–
293.93 K	40.58	–
298.48 K	40.31	–
303.39 K	40.14	–
303.45 K	–	39.75
308.08 K	39.96	–
308.14 K	–	39.56
313.4 K	39.68	–
313.41 K	–	39.34
318.16 K	39.45	39.12
323.29 K	–	38.8
323.34 K	39.07	–
328.24 K	–	38.58
328.26 K	38.83	–
333.84 K	38.51	–
333.86 K	–	38.26
338.01 K	38.31	–
338.05 K	–	38.08
343.05 K	38.09	–
343.07 K	–	37.86
348.61 K	37.8	–
348.66 K	–	37.51
352.53 K	37.43	–
352.73 K	–	37.37
358.19 K	37.28	–
358.21 K	–	37.02
360.12 K	37.19	–
360.23 K	–	36.96

Settings	mass density [kg/m3]
288.7 K	1235.51
293.91 K	1231.69
298.52 K	1228.13
303.43 K	1224.72
308.13 K	1220.87
313.41 K	1216.98
318.19 K	1213.32
323.33 K	1209.5
328.2 K	1205.7
333.8 K	1201.57
338.04 K	1198.15
343.07 K	1195.21
348.64 K	1191.41
352.79 K	1188.62
358.28 K	1185.22
360.63 K	1183.34
